Measured values published in patent publication US12522596B2, “Compounds as GLP-1R agonists” (Terns Pharmaceuticals, Inc., priority 2021, dated 2026).
Entries after “also recorded” stand apart in the source; their conditions may differ.

What was measured:
[1] = system: C57BL/6 mice expressing human GLP-1R (hGLP-1R); experiment: Food intake in humanized mouse model; assay type: in vivo; details: hGLP-1R mice, relative to vehicle control; Compound 2 10, 30, 60 mg/kg PO
Experimental: The ability of compounds disclosed herein to modify the food intake of C57BL/6 mice expressing human GLP-1R (hGLP-1R) was evaluated.
The dose protocol used in this study is described in Table 6.
Acclimation and grouping: Mice were acclimated for QD PO dosing with vehicle for 4 days, baseline body weight and food intake were measured for 4 consecutive days. Animals were allocated into 8 groups based on body weight and 3rd day's food intake.
Dose body weight and food intake measurement: All animals were placed in clean cages with sawdust bedding and fasted overnight, mice were dosed with vehicle or test compound in the morning. All group's food was added 15 minutes post dosing, food remaining was recorded at 2-, 4-, 6-, 8-, 10- and 24-h post dosing. (FIG. 4) Body weight was determined on a daily basis during the study.
Data processing and analysis: Manual data were transferred into an excel spreadsheet. All values were expressed as mean±S.E.M. The significances of the differences among groups and within groups are evaluated by one-way or two-way ANOVA using Graph Pad statistic software. A p-value of less than 0.05 was considered statistically significant.

human hepatocytes = experiment: Metabolic stability in human hepatocytes; assay type: in vitro ADME; details: human
In short: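 Compounds at 1 μM (0.1% DMSO) were incubated with 1×10^6 cells/mL cryopreserved rat or human hepatocytes in DMEM at 37°C for 0–240 min. Parent remaining was measured by LC-MS/MS; k from semi-log decline gave t1/2 and CLint, with CLhep predicted by the well-stirred model.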

[2] = system: C57BL/6 mice expressing human GLP-1R (hGLP-1R); experiment: Intraperitoneal glucose tolerance test (IPGTT) in hGLP-1R mice; assay type: in vivo, mouse; details: IP glucose bolus, relative to vehicle control
Experimental: The ability of compounds disclosed herein to modify the glucose tolerance of C57BL/6 mice expressing human GLP-1R (hGLP-1R), was evaluated.
The group design used in this study is described in Table 8.
Acclimation and grouping: Following a one-week washout period after in-life completion of the food intake study, mice were utilized to conduct an intraperitoneal Glucose Tolerance Test (IPGTT); mice remained in their treatment groups from study the food intake study. Baseline fasting glucose levels were used to balance treatment groups (final n=7 per treatment group); outlier mice (n=3), based on abnormal fasting blood glucose and body weight, were used for PK assessment.
Intraperitoneal Glucose Tolerance Test (IPGTT): The mice were placed clean cages with sawdust bedding and fasted overnight. Basal fasting glucose was measured by tail vein nick before dosing in the morning, 3 mice per group of abnormal fasting blood glucose and body weight were used for PK assessment. […] Blood glucose levels were measured at 0 (pre-dose), 15-, 30-, 60-, and 120-min post glucose dosing. […]
Data Processing and analysis: Manual data were transferred into an excel spreadsheet. All values are expressed as mean±S.E.M. The significances of the differences among groups and within groups were evaluated by one-way or two-way ANOVA using Graph Pad statistic software. […]

[3] = system: mice expressing wildtype (WT) mouse GLP-1R; experiment: Glucose tolerance in mice expressing wildtype mouse GLP-1R; assay type: in vivo; details: mice expressing WT mouse GLP-1R
Experimental: The glucose tolerance of mice expressing wildtype (WT) mouse GLP-1R was also evaluated after the administration of compound 2 using methods analogous to those described above. The glucose tolerance of mice expressing WT mouse GLP-1R was not affected by Compound 2, whereas the glucose tolerance of mice expressing human GLP-1R was improved by Compound 2 (FIGS. 9 and 10).

N#Cc1ccc(COc2cccc(C3CCN(Cc4nc5ccc(C(=O)O)cc5n4C[C@@H]4CCO4)CC3)n2)c(F)c1 [Reference Compound A, reference compound]
food intake [1]: reduction in food intake

N#Cc1ccc(COc2cccc(N3CCN(Cc4nc5ccc(C(=O)O)cc5n4Cc4cncs4)CC3)n2)c(F)c1 [Compound 30]
CLint relative to reference (human hepatocytes): no significant difference | half-life relative to standard (human hepatocytes): no significant difference

N#Cc1ccc(COc2cccc(C3CCN(Cc4nc5ccc(C(=O)O)cc5n4Cc4cncs4)CC3)n2)c(F)c1 [Compound 2]
glucose tolerance [2]: significantly enhanced the glucose tolerance; also recorded: improved | food intake [1]: reduction in food intake; also recorded: significantly suppressed food intake | glucose tolerance [3]: not affected
